Test results: publication PMC8944987, “In Vivo Efficacy of SQ109 against Leishmania donovani, Trypanosoma spp. and Toxoplasma gondii and In Vitro Activity of SQ109 Metabolites” (Biomedicines, 2022)

Assays:
[1] = system: THP-1 human monocyte cell line; assay: Host cell toxicity in the L. donovani amastigote assay; assay type: cell-based; conditions: 3 days of compound incubation; Figure 2F
Procedure: The THP-1 human monocyte cell line was grown in RPMI-1640 medium (Welgene, Gyeongsangbuk-do, Republic of Korea) supplemented with 10% FBS and 1% P/S. For differentiation, THP-1 cells were treated for 3 days with 50 ng/mL of PMA [20]. […] An image analysis was performed as described in the T. cruzi assay (Figure S2).

[2] = system: L. donovani promastigotes; parameters: method as in PMID 31897791; conditions: cited from earlier work
T. gondii tachyzoites = assay: In vitro activity assay for T. gondii (td-tomato tachyzoites in hTert fibroblasts); assay type: cell-based; conditions: Toxoplasma gondii, Fibroblast; human fibroblasts (hTert), fluorescence 3 to 4 days; Figure 6A; read-out: IC50, T. gondii cell growth inhibition (intracellular tachyzoite assay)
Procedure: We used a parasite strain expressing red fluorescent protein (td-tomato) for in vitro drug testing. Tachyzoites were maintained in human fibroblasts (hTert cells). Human fibroblasts were cultured in 96-well plates for 24 h prior to the addition of 4000 fluorescent tachyzoites/well. Fluorescence values were measured for 3 to 4 days, and both excitation (544 nm) and emission (590 nm) were read from the bottom of the plates in a Molecular Devices (Molecular Devices, LLC, CA, USA) plate reader.

T. cruzi trypomastigotes = system: T. cruzi trypomastigotes; parameters: method as in PMID 25583723; conditions: cited from earlier work

CC(C)=CCC/C(C)=C/CNCCNC1C2CC3CC(C2)CC1C3 (stereo not shown) [SQ109, N-adamantan-2-yl-N’-((E)-3,7-dimethyl-octa-2,6-dienyl)-ethane-1,2-diamine]
host cell (THP-1) toxicity: concentration up to which none was observed [1]: > 10 µM | IC50 [2]: 630 nM | IC50 (T. gondii tachyzoites): 1820 nM | IC50 (T. cruzi trypomastigotes): 50 nM
